The target of data set [1] is D(1A) dopamine receptor (Homo sapiens, UniProt P21728). The data set can be described thus: DRUGMATRIX: Dopamine D1 radioligand binding (ligand: [3H] SCH-23390). Type of data set: cell membranes, CHO, Membrane. The settings on record: cho, Not Active = under 50% inhibition at 10 µM.
The target of data set [2] is T1, Vasoactive intestinal polypeptide receptor 1 (Homo sapiens, UniProt P32241). Note: in other assays of this panel Not Active means under 50% inhibition at 10 µM.
T1 sequence (P32241 whole entry): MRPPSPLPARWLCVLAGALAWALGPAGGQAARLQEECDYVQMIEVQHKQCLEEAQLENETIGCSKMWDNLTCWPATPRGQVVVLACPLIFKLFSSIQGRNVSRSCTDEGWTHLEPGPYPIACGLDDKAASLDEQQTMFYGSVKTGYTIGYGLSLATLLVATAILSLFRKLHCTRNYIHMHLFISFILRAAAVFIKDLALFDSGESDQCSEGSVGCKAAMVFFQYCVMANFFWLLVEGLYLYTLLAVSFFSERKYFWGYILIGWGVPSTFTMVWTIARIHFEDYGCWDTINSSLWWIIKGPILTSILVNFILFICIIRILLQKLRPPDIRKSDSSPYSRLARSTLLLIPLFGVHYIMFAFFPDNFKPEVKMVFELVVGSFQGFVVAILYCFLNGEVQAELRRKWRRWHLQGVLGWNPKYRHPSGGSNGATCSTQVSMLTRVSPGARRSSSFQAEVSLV
It counts as cell membranes, Membrane. The settings on record: ht-29.

In data set [3] the target is Protein kinase C alpha type (Homo sapiens, UniProt P17252). Type of data set: cell-based. Particulars: sf9.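 Note: inhibition of PKCalpha kinase activity measured in an enzyme assay with histone as the phosphorylation substrate; in other assays of this panel Not Active means under 50% inhibition at 10 µM.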
Data set [4] addresses T2, Cytochrome P450 1A2 (Homo sapiens, UniProt P05177).
T2 sequence (P05177 whole entry): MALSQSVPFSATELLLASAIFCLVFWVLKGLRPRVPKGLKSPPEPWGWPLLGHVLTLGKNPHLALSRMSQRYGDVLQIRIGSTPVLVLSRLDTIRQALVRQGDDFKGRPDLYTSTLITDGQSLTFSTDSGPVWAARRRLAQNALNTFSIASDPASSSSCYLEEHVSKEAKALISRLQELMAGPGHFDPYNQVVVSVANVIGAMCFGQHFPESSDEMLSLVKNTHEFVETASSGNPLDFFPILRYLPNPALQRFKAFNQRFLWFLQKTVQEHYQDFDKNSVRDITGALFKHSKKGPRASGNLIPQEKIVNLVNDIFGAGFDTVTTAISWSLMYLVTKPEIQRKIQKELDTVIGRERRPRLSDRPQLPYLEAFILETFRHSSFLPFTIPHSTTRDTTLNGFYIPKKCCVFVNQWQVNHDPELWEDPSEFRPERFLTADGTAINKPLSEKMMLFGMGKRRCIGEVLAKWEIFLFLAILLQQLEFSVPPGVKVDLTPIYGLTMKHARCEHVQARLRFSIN
The settings on record: bti-tn-5b1-4.

Data set [5] deals with T3, Alpha-2C adrenergic receptor (Homo sapiens, UniProt P18825).
T3 sequence (P18825 whole entry): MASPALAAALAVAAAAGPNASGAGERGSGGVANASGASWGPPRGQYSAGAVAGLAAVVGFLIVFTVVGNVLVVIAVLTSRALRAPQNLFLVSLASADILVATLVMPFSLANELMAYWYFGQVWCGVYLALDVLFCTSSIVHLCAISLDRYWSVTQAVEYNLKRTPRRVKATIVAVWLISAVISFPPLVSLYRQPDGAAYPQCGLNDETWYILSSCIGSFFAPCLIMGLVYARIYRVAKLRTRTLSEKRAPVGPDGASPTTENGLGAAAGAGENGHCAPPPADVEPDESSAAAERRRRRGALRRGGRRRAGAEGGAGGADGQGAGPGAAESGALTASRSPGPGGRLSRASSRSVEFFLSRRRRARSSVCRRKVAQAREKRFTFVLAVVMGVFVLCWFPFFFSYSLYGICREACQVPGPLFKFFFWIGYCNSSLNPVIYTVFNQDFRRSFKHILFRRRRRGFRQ
The experiment in a line: DRUGMATRIX: Adrenergic Alpha-2C radioligand binding (ligand: [3H] MK-912). It counts as cell membranes, Sf9, Membrane. Particulars: sf9.

Data set [6] is described as follows: DRUGMATRIX: Phosphodiesterase PDE3 enzyme inhibition (substrate: [3H]cAMP + cAMP). Type of data set: tissue-based, Homo sapiens. The settings on record: platelet; Not Active = under 50% inhibition at 10 µM.
Data set [7] concerns the target Voltage-gated inwardly rectifying potassium channel KCNH2 (Homo sapiens, UniProt Q12809). Particulars: hek293. Note: in other assays of this panel Not Active means under 50% inhibition at 10 µM.
Data set [8] addresses T4, Glucocorticoid receptor (Homo sapiens, UniProt P04150).
T4 sequence (P04150 whole entry): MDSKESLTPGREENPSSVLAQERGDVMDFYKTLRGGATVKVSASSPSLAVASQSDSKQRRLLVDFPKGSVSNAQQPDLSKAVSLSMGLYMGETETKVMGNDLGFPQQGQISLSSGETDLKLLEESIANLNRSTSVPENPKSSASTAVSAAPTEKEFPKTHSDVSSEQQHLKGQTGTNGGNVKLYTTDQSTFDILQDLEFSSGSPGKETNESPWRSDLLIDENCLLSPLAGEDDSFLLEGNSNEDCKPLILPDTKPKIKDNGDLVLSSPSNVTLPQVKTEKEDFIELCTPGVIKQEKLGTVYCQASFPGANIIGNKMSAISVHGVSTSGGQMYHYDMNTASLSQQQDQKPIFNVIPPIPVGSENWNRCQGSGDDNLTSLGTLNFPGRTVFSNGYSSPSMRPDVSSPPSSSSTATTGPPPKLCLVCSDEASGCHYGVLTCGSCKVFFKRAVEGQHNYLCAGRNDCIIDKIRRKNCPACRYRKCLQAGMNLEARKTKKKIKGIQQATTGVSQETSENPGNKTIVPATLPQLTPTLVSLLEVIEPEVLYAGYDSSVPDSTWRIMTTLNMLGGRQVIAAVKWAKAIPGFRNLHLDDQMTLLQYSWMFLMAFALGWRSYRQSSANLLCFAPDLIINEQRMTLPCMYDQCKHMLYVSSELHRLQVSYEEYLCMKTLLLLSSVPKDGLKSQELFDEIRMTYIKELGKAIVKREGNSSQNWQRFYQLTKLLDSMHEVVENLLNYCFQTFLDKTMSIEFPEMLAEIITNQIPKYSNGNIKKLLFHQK
The settings on record: hela s3.

Data set [9] can be described thus: DRUGMATRIX: Nicotinic Acetylcholine radioligand binding (ligand: [125I] Epibatidine). Type of data set: cell membranes, Membrane. The settings on record: imr-32; Not Active = under 50% inhibition at 10 µM.
The target in data set [10] is 5-hydroxytryptamine receptor 2B (Homo sapiens, UniProt P41595). Type of data set: cell membranes, CHO-K1, Membrane. The settings on record: cho-k1. Note: in other assays of this panel Not Active means under 50% inhibition at 10 µM.
Chain of 5-hydroxytryptamine receptor 2B (P41595 whole entry): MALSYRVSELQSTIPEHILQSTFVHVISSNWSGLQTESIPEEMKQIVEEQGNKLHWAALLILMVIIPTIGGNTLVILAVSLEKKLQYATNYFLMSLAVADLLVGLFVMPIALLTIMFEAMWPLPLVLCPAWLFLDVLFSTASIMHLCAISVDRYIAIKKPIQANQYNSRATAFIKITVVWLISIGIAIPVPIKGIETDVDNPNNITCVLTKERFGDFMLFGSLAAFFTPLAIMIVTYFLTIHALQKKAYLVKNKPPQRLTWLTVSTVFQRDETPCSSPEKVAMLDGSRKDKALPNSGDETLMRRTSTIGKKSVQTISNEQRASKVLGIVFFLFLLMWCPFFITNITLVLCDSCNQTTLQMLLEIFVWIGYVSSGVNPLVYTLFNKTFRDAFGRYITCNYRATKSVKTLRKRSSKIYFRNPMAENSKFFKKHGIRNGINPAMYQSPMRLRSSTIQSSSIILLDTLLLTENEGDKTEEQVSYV
In data set [11] the target is 5-hydroxytryptamine receptor 1B (Rattus norvegicus, UniProt P28564). Type of data set: cell membranes, Wistar, Cerebral cortex, Membrane. Note: in other assays of this panel Not Active means under 50% inhibition at 10 µM.
Chain of 5-hydroxytryptamine receptor 1B (P28564 whole entry): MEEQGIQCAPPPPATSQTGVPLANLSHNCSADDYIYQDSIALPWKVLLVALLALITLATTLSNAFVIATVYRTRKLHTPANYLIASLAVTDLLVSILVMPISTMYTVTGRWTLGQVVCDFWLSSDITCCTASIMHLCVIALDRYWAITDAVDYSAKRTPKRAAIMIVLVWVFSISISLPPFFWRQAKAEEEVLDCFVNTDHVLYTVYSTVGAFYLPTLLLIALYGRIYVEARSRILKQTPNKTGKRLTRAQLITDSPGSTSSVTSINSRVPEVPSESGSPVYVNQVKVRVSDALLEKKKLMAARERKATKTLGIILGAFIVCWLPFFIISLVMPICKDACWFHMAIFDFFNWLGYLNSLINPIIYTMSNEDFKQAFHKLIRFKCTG
Data set [12] has as its target Cytochrome P450 2D6 (Homo sapiens, UniProt P10635). The settings on record: bti-tn-5b1-4. Note: in other assays of this panel Not Active means under 50% inhibition at 10 µM.

Chain of D(1A) dopamine receptor (P21728 whole entry): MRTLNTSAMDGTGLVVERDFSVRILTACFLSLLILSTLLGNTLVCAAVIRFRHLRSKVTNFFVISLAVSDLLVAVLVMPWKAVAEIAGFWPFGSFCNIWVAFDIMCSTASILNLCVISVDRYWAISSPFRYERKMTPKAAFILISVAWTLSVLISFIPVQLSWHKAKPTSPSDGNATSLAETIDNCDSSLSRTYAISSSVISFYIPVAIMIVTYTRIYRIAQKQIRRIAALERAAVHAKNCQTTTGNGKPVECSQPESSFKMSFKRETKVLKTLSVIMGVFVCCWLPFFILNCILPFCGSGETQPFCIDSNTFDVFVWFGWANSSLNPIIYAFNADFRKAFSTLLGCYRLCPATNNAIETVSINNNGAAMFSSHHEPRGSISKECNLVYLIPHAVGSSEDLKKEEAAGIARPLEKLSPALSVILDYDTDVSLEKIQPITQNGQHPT
Chain of Cytochrome P450 2D6 (P10635 whole entry): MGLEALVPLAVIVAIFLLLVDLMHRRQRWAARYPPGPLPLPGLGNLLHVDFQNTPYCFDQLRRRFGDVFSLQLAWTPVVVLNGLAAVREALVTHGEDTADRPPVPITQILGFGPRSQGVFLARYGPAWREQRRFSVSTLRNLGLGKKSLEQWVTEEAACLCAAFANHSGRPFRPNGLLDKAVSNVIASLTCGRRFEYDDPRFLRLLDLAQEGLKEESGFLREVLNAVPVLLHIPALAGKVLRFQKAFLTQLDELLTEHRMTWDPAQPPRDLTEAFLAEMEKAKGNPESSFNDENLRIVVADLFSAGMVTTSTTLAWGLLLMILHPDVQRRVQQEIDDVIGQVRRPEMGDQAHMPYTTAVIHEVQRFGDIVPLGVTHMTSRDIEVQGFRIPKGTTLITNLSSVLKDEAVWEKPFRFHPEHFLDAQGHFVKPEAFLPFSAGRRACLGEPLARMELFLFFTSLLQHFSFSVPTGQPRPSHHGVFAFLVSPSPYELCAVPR
Chain of Voltage-gated inwardly rectifying potassium channel KCNH2 (Q12809 whole entry): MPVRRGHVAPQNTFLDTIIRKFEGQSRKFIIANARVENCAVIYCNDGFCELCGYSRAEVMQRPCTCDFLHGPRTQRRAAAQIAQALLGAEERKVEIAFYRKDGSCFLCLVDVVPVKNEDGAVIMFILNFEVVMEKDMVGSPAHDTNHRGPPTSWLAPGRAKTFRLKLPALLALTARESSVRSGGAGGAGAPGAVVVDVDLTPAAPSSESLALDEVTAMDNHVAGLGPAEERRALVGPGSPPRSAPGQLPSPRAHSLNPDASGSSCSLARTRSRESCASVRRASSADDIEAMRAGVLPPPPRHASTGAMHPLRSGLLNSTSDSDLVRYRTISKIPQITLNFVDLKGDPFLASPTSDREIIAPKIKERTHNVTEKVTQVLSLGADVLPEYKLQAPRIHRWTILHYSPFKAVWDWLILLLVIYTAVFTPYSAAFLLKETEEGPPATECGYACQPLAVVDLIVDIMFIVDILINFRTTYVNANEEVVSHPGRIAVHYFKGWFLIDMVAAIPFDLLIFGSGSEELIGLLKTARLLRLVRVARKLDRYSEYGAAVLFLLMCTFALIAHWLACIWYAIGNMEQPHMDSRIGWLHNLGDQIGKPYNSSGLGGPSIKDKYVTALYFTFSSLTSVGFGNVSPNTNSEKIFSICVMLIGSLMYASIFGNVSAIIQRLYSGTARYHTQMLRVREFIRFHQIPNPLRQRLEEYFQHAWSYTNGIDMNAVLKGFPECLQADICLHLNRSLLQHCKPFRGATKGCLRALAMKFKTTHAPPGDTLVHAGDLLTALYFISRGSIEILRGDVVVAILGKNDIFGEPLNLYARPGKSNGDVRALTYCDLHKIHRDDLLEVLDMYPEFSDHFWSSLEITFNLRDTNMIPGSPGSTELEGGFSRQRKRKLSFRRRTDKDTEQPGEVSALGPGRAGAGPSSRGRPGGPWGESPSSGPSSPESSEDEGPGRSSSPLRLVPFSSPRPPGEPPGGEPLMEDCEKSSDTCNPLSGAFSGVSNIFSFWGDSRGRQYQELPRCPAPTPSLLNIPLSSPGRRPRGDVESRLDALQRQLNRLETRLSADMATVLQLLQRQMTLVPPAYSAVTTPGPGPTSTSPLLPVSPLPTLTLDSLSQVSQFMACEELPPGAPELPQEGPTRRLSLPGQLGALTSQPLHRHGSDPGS

For the compound `COc1cc(C(=O)NC2CCCNC2)cc(OC)c1OC` (stereo not given) [TROXIPIDE], the IC50 result in data set [1], in [2], in data set [3], in data set [4], in data set [5] and in data set [6] was “Not Active” in each case. The IC50 entry in data set [7], in [8], in [9], in [10], in data set [11] and in data set [12] was “Not Active” throughout. Further, the Ki result in [4], in [6], in data set [7], in [9] and in [12] was “Not Active” throughout.
In the case of `CC(C)[C@H](N)C(=O)OCCOCn1cnc2c(=O)nc(N)[nH]c21` [VALACYCLOVIR], the IC50 entry in [1], in data set [2], in [3], in data set [4], in [5] and in data set [6] was “Not Active” throughout. Besides, the IC50 result in data set [7], in data set [8], in data set [9], in data set [10], in [11] and in [12] was “Not Active” in each case. Further, the Ki entry in data set [4], in data set [6], in data set [7], in [9] and in data set [12] was “Not Active” throughout.
In the case of `CN[C@H](CC(C)C)C(=O)N[C@H]1C(=O)N[C@@H](CC(N)=O)C(=O)N[C@H]2C(=O)N[C@H]3C(=O)N[C@H](C(=O)N[C@H](C(=O)O)c4cc(O)cc(O)c4-c4cc3ccc4O)[C@H](O)c3ccc(c(Cl)c3)Oc3cc2cc(c3O[C@@H]2O[C@H](CO)[C@@H](O)[C@H](O)[C@H]2O[C@H]2C[C@](C)(N)[C@H](O)[C@H](C)O2)Oc2ccc(cc2Cl)[C@H]1O` [VANCOMYCIN], the IC50 entry in data set [1], in data set [2], in data set [3], in data set [4], in data set [5] and in data set [6] was “Not Active” each time. Moreover, the half-inhibitory concentration (IC50) entry in data set [7], in data set [8], in [9], in data set [10], in [11] and in data set [12] was “Not Active” in each case. Also, the inhibition constant Ki entry in data set [4], in data set [6], in data set [7], in data set [9] and in [12] was “Not Active” each time.
Turning to IVERMECTIN, the IC50 in data set [1] (read-out: IC50) was 4.51 µM; in [2], “Not Active”; in data set [3], “Not Active”; in data set [4], “Not Active”; in data set [5] (read-out: IC50) it was 3.92 µM; in [6], “Not Active”. Further, the IC50 entry in [7], in [8], in data set [9], in data set [10], in [11] and in data set [12] was “Not Active” each time. For the same compound, the inhibition constant Ki in data set [1] (read-out: Ki) was 2.26 µM; in data set [2] it was “Not Active”; in data set [3], “Not Active”; in data set [4], “Not Active”; in [5] (read-out: Ki) it was 0.57 µM; in data set [6] it was “Not Active”. Also, the Ki entry in data set [7], in data set [8], in data set [9], in [10], in data set [11] and in data set [12] was “Not Active” throughout.

A word on the IC50: it is the concentration at which inhibition is half-maximal. As usually defined, the Ki is the equilibrium dissociation constant of an inhibitor or competing ligand from its target.
